We go through 82 compounds from the METLIN SMRT retention time set (Domingo-Almenara et al. 2019).

This series is described as follows: gradient 5% acetonitrile 3 min, to 50% in 2 min, to 85% in 15 min, held 3 min, 100 µL/min. As to conditions: column: Zorbax Extend-C18 2.1 x 50 mm; eluents: water / acetonitrile, 0.1% formic acid. The procedure, abridged:
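The mobile phases were water and acetonitrile, each with 0.1% formic acid, pumped at 100 μL/min through a Zorbax Extend-C18 column (2.1 × 50 mm, 1.8 μm). Pure standards were injected as mixtures of ~100 molecules and detected by a quadrupole time-of-flight mass spectrometer in positive and negative ionization mode. Retention time came from computationally picked adduct peaks, each inspected by hand.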
Compound `CCC(C)NC(=O)CSc1nc2nc(C)cc(C)n2n1` (configuration not stated) came in with an RP-LC retention time of 650 s.

`COc1ccc2sc(OC3CCN(C(=O)c4cnn(-c5ccccc5)n4)CC3)nc2c1`: the RP-LC retention time worked out at 1140 s.

For the compound `Cc1ccc(N2CC(c3noc(-c4ccc(C)c(F)c4)n3)CC2=O)cc1` (configuration not stated), the RP-LC retention time stood at 1100 s.

`COc1ccc(-c2noc(Cc3nnc(-c4ccc(F)cc4)o3)n2)cc1OC` had an RP-LC retention time of 889 s.

The compound `CCOC(=O)N1CCN(S(=O)(=O)c2cc(N3C(=O)CCS3(=O)=O)ccc2C)CC1` returned an RP-LC retention time of 729 s.

For the compound `O=C(c1ccco1)N1CCN(C(=O)C2CCN(c3nc4ccccc4[nH]c3=O)CC2)CC1`, the RP-LC retention time came to 631 s.

`CCc1cc(-c2csc(S(=O)(=O)NCCc3ccc(Cl)cc3)c2)on1` displayed an RP-LC retention time of 1050 s.

In turn, `CCCCNC(=O)C1CCc2nc(N3CCC(C)CC3)ncc2C1` (configuration not stated) gave an RP-LC retention time of 758 s.

`O=C(NCc1nnnn1-c1ccc(Cl)cc1)c1ccc(S(=O)(=O)N2CCCC2)cc1` had an RP-LC retention time of 773 s.

`O=C(Cn1c2ccccc2c2ncn(Cc3nc(C4CC4)no3)c(=O)c21)Nc1ccc2c(c1)OCO2`: the RP-LC retention time stood at 823 s.

In turn, `O=C1CCCN1CCCN(CC(=O)N1CCNCC1)C(=O)c1ccc(F)c(Cl)c1` gave an RP-LC retention time of 581 s.

Turning to `CC(C)CNC(=O)NC(c1ccccc1)c1nnc(-c2ccccc2Cl)o1` (configuration not stated), the RP-LC retention time is 898 s.

Compound `CC(=O)Nc1nnc(SCc2cc(=O)c(OC(=O)c3ccccc3Cl)co2)s1` registered an RP-LC retention time of 699 s.

In turn, `CCS(=O)(=O)N1CC(=O)N(c2cc(Cl)ccc2C)C(C)(C(=O)NCc2ccccc2)C1` (configuration not stated) showed an RP-LC retention time of 919 s.

For the compound `CCOc1ccc(-c2cn3ccn(-c4cc(C)cc(C)c4)c(=O)c3n2)cc1`, the RP-LC retention time is 965 s.

Consider `c1nc2c(c(NCc3ccc4c(c3)OCO4)n1)CCC2`, for which the RP-LC retention time came to 606 s.

The compound `CCCc1cc(N2CCN(C(=O)c3ccc(C#N)cc3)CC2)nc2nncn12` showed an RP-LC retention time of 609 s.

In turn, `O=C(Nc1ccccc1)c1ccc2c(cnn2CC(=O)N2CCCCCC2)c1` had an RP-LC retention time of 800 s.

`CCOc1ccc(NC(=O)Cn2c(C)cc(-c3nnc(C4CCC4)o3)c2C)cc1` registered an RP-LC retention time of 896 s.

`Cc1nc(N2CCN(c3ccccn3)CC2)nc2c1C(=O)CC(c1ccc(Cl)cc1)C2` (configuration not stated) came in with an RP-LC retention time of 823 s.

`CCOCCCNC(=O)C1Cn2cccc2C(=O)N1` (configuration not stated) gave an RP-LC retention time of 592 s.

In turn, `CCOC(=O)c1cccc(Nc2c(-c3ccc(OC)c(OC)c3)nc3cnccn23)c1` returned an RP-LC retention time of 811 s.

In the case of `COc1ncc(C(=O)N2CCCC2)cn1`, the RP-LC retention time is 589 s.

For the compound `CCc1nnc(-c2ccc(NS(=O)(=O)c3cccc(OC)c3)cc2)o1`, the RP-LC retention time was 801 s.

In turn, `CCN(CC)c1ccc(-c2noc(CN3CCC(C)CC3)n2)cn1` returned an RP-LC retention time of 593 s.

The compound `CC1CS(=O)(=O)N(c2ccc(C(=O)N3CCN(c4ccccn4)CC3)c(Cl)c2)C1=O` (configuration not stated) displayed an RP-LC retention time of 576 s.

`O=c1n(Cc2ccc3c(c2)OCO3)nc2c(S(=O)(=O)N3CCCCCC3)cccn12`: the RP-LC retention time came out at 921 s.

With `O=C(NCC1CCCO1)C1CCN(c2ccc(=O)n(-c3cccc(Cl)c3)n2)CC1` (configuration not stated), the RP-LC retention time was 721 s.

`CCn1cc(-c2ccc(OC)cc2)cc1C(=O)NC(C)c1cccnc1` (configuration not stated) came in with an RP-LC retention time of 693 s.

`C=C(CN(C)C)C(=O)c1ccccc1Cl` came in with an RP-LC retention time of 594 s.

Take `CCOc1ccc(-c2nnc(SCC(N)=O)o2)cc1`: the RP-LC retention time came out at 682 s.

As for `CC(C)CN1CCn2cc(C(=O)NCc3cccc(Br)c3)nc2C1`, the RP-LC retention time is 656 s.

In the case of `Cc1noc(C2(NC(=O)c3sccc3C)CCCCC2)n1`, the RP-LC retention time was 882 s.

`Cc1nc(C(=O)Nc2cccc(C(F)(F)F)c2)c(C)o1` gave an RP-LC retention time of 988 s.

Regarding `COc1cc(Cl)c(NS(=O)(=O)c2cc(-c3c(C)noc3NC(C)=O)ccc2OC)c(OC)c1`, the RP-LC retention time came to 784 s.

Compound `Cc1nc(N2CCN(c3ccccn3)CC2)c2c(C)c(C(=O)Nc3ccc(F)cc3F)sc2n1` returned an RP-LC retention time of 701 s.

`O=C(NC1CCN(c2cc(-c3ccccc3)[nH]n2)C1)c1cccs1` (configuration not stated): the RP-LC retention time is 630 s.

The compound `Cc1cc(N2CCN(c3ccccn3)CC2)n2nc(C(F)(F)F)c(-c3ccccc3Cl)c2n1` returned an RP-LC retention time of 833 s.

In the case of `CCOc1ccc(NC(=O)Cn2c(N)nc(C)cc2=O)cc1`, the RP-LC retention time was determined as 574 s.

Take `COc1ccc2cc(-c3nc(-c4ccc(S(C)=O)cc4)[nH]c3-c3ccncc3)ccc2c1` (configuration not stated): the RP-LC retention time stood at 682 s.

`O=C(Nc1cccc(Cl)c1)C1CCN(c2nccnc2Sc2ccccc2)CC1` registered an RP-LC retention time of 1170 s.

Compound `COCc1nc2cccnc2n1C1CCN(C(=O)Nc2cccc(Br)c2)CC1` came in with an RP-LC retention time of 768 s.

On to `CN(CC1CCOCC1)C(=O)Nc1ccc(Cl)cc1F`, for which the RP-LC retention time came to 726 s.

`CC(C)n1c(=O)c(NCCc2ccccc2)nc2ccncc21` had an RP-LC retention time of 672 s.

In the case of `CNC(=O)C1CCCN(c2nc3ncn(CC(=O)NCC4CCCO4)c(=O)c3s2)C1` (configuration not stated), the RP-LC retention time was determined as 569 s.

Consider `O=C(c1cccn1-c1nnc(N2CCOCC2)s1)N1CCCCCC1`, for which the RP-LC retention time was determined as 747 s.

Regarding `C=CCNC(=O)c1cnn(-c2ccc(-c3nc(C)no3)cn2)c1C`, the RP-LC retention time was found to be 750 s.

As for `Cc1ccc(-c2nccn3cc(C(=O)O)nc23)cc1`, the RP-LC retention time was found to be 696 s.

Regarding `Cc1cccc(NC(=O)C2CCN(S(C)(=O)=O)c3ccccc3O2)c1C` (configuration not stated), the RP-LC retention time worked out at 844 s.

For `COc1ccc2cccc(NC(=O)c3ccco3)c2n1`, the RP-LC retention time came out at 1010 s.

As to `Cc1ccc(CNC(=O)N2CCC(c3cc(N)on3)CC2)cc1`, the RP-LC retention time turned out to be 692 s.

The compound `CC(C)(C)c1csc(-c2csc(S(=O)(=O)Nc3ccc(Cl)cc3)c2)n1` had an RP-LC retention time of 1300 s.

As to `Cc1csc(-c2csc(S(=O)(=O)N3CCN(c4ccccc4)CC3)c2)n1`, the RP-LC retention time is 1090 s.

In turn, `Cc1ccc(C)c(-c2coc(-c3ccc(NC(=O)COc4ccc(F)cc4)cc3)n2)c1` had an RP-LC retention time of 1310 s.

For the compound `O=C(NC1CCCC1)c1ccc2ncnc(N3CCCCC3)c2c1`, the RP-LC retention time came to 640 s.

Take `Cc1nc(-c2cccnc2)nc2c1CCC(=O)N2CC1CCCO1` (configuration not stated): the RP-LC retention time was 626 s.

In turn, `O=C(Cc1cn2cc(F)ccc2n1)Nc1ccc(F)cc1` returned an RP-LC retention time of 594 s.

Regarding `O=S(=O)(Cc1ccccc1F)N1CC(c2nc(CCOCc3ccccc3)no2)C1`, the RP-LC retention time came out at 1010 s.

`Nc1cc(C2CCN(C(=O)c3ccc(F)cc3)CC2)no1` registered an RP-LC retention time of 675 s.

Take `Cn1nc(C2CCN(C(=O)C3CCCO3)CC2)c2c1CCOC2` (configuration not stated): the RP-LC retention time worked out at 586 s.

For `CCc1nnc2nc(N3CCN(C(=O)c4ccc(Cl)s4)CC3)cc(C)n12`, the RP-LC retention time amounted to 638 s.

Take `O=C(Nc1ccc2c(c1)OCCO2)C1CCN(c2cc(N3CCCC3)ncn2)CC1`: the RP-LC retention time is 630 s.

`CC1(C)CC(=O)c2cn(-c3ccccc3)c(=O)c(C(=O)Nc3cccc(C#N)c3)c2C1` displayed an RP-LC retention time of 1030 s.

For the compound `CCN(CC)c1ncc2c(n1)CCC(C(=O)Nc1cccc(C(=O)OC)c1)C2` (configuration not stated), the RP-LC retention time was 660 s.

Regarding `COC(=O)c1ncn2c1C(=O)N(Cc1ccccc1)C(C)(C(=O)NCc1ccc(C)cc1)C2` (configuration not stated), the RP-LC retention time amounted to 734 s.

For `CC(C)CN1C(=O)c2cccn2CC1CNC(=O)c1cccn1C` (configuration not stated), the RP-LC retention time was found to be 733 s.

`COCCCNc1c(C(=O)OC)c(=O)[nH]c2c(Cl)cccc12`: the RP-LC retention time worked out at 692 s.

`COc1ccc(-c2nc(C3CC(=O)N(c4ccc(Cl)cc4)C3)no2)c(C)c1` (configuration not stated) came in with an RP-LC retention time of 1140 s.

`Cc1nnc2ccc(S(=O)(=O)N(Cc3ccccc3)c3cc(F)cc(F)c3)cn12`: the RP-LC retention time came out at 899 s.

For `CCOC(=O)C1=C(C)NC2=C(C(=O)c3ccccc32)C1c1cccc(OC)c1` (configuration not stated), the RP-LC retention time amounted to 988 s.

The compound `C=CCNC(=O)CN1C(=O)C2CCCCN2c2ccc(S(=O)(=O)N(C)C)cc21` (configuration not stated) registered an RP-LC retention time of 774 s.

`COc1cccc(NC(=O)Cn2nc3n(c2=O)CCCC3)c1` returned an RP-LC retention time of 634 s.

In turn, `Cc1nn2c(S(=O)(=O)N3CCCCC3)c(C)nc2s1` yielded an RP-LC retention time of 792 s.

`O=C(CN1CCN(Cc2ccc(F)cc2Cl)C1=O)N1CCN(c2ccc(F)cc2)CC1` came in with an RP-LC retention time of 908 s.

In turn, `COc1cc(CCC(=O)N2C[C@@H](C(N)=O)[C@H](c3nc(C)no3)C2)on1` showed an RP-LC retention time of 600 s.

Compound `CCN(CC)S(=O)(=O)c1ccc2nc(N3CCN(Cc4ccc5c(c4)OCO5)CC3)cnc2c1` yielded an RP-LC retention time of 685 s.

The compound `COc1cc2ncnc(Nc3cccc(Br)c3)c2cc1OC` registered an RP-LC retention time of 771 s.

For `CCN(CC)S(=O)(=O)c1cc(-c2nnc(-c3ccc(OC)c(OC)c3)o2)ccc1Cl`, the RP-LC retention time was 1010 s.

For `CCN1CCCC1CNC(=O)c1nc(-c2oc3c(C)cccc3c2C)no1` (configuration not stated), the RP-LC retention time was 670 s.

The compound `CCSc1cccc(C(=O)N2CC(=O)Nc3ccccc32)c1` came in with an RP-LC retention time of 756 s.

`CCc1cccc2[nH]c3cc([N+](=O)[O-])ccc3c12` came in with an RP-LC retention time of 1180 s.

`COc1ccc(NC(=O)c2csc(-c3ccc(C)n3C)n2)c(OC)c1` gave an RP-LC retention time of 1200 s.
